ChEMBL document CHEMBL5724696, “Autophagy assay results for EUbOPEN Chemogenomics Library” (2024)
“And” between values parts separate entries of the source, which are not always exact repeats. Equal values may be shown once.

System: TERT-RPE1
Experiment: Here: values are normalized to the negative (DMSO; defined as 0% autophagy induction) and positive (250nM Torin1; mTOR inhibitor; defined as maximal inducer of autophagy = 100%) control compounds and represented as % of autophagy induction. […] The impact of autophagy induction on cells is complex and depends on the affected target. As such, the magnitude of a phenotype may not be equally mirrored in the %-value of autophagy induction and vice versa. The dynamics of the induction may indicate the mode of activation: e.g. activation via phosphorylation or a signaling cascade may occur fast, while activation via transcription factors may take considerably longer. […] Of note, treatment concentrations may be sub-optimal for specific compounds, leading to false negative annotations.
Assay type: functional, Homo sapiens
Details: Culturing Media DMEM/F12 (1:1), 1 % Penicillin/Streptomycin, 10% Fetal bovin serum Add-On: No, Screening Media Control DMEM/F12 (1:1), Screening Media Samples DMEM/F12 (1:1)
[1] = Compound Concentration 1 uM, Timepoint 12 hours
[2] = Compound Concentration 1 uM, Timepoint 24 hours
[3] = Compound Concentration 1 uM, Timepoint 36 hours
[4] = Compound Concentration 1 uM, Timepoint 60 hours

Row | Compound | autophagy induction [1] [%] | autophagy induction [2] [%] | autophagy induction [3] [%] | autophagy induction [4] [%] | further results
1 | CC(C=CC1=C(C)CCCC1(C)C)=CC=CC(C)=CC(=O)O | -29.8215 | -16.487 | 10.9979 | 39.1731 | –
2 | COc1ccc(-c2ccc3cc(C(=O)O)ccc3c2)cc1C12CC3CC(CC(C3)C1)C2 | -16.1508 | -22.2133 | -14.1287 | 30.465 | –
3 | Cc1cccc(CN2CCN(C(c3ccccc3)c3ccc(Cl)cc3)CC2)c1.Cl.Cl (stereo not drawn) | 89.2215 | -0.434 | 13.2807 | -24.9822 | –
4 | CCCc1c(OCCCOc2ccc(OCC(=O)O)cc2)ccc(C(C)=O)c1O | -6.598 | -4.053 | -2.5514 | -8.413 | –
5 | Cc1oc2ccccc2c1Cc1cc(I)c(OCC(=O)O)c(I)c1 | – | – | – | – | autophagy induction (Compound Concentration 3 uM, Timepoint 12 hours): -1.169%; autophagy induction (Compound Concentration 3 uM, Timepoint 24 hours): 9.702%; autophagy induction (Compound Concentration 3 uM, Timepoint 36 hours): 19.9109%; autophagy induction (Compound Concentration 3 uM, Timepoint 60 hours): -4.505%
6 | CCOC(=O)Nc1ccc2c(c1)N(C(=O)CN(CC)CC)c1ccccc1CC2 | -0.6682 | 2.4649 | 6.3561 | 1.708 | –
7 | CN(CCOc1ccc(C[C@H](Nc2ccccc2C(=O)c2ccccc2)C(=O)O)cc1)c1ccccn1.O | -1.212 | -2.25 | 0.5142 | -9.85 | –
8 | OC(c1ccc(-c2ccc(CN3CCN(Cc4ccncc4)CC3)cc2)c(F)c1)(C(F)(F)F)C(F)(F)F | -2.122 | -7.771 | -2.839 | 2.172 | –
9 | COc1cc(O)c(C(CC(=O)N2C[C@H](C)C[C@H](C)C2)c2ccc3c(c2)OCO3)c(OC)c1 (stereo partly drawn) | – | – | – | – | autophagy induction (Compound Concentration 1 uM, Timepoint 12 hours, 12 h, 1 µM): -12.9989% and -4.38%; autophagy induction (Compound Concentration 1 uM, Timepoint 24 hours, 24 h, 1 µM): -0.5632% and -3.782%; autophagy induction (Compound Concentration 1 uM, Timepoint 36 hours, 36 h, 1 µM): 12.4792% and 2.693%; autophagy induction (Compound Concentration 1 uM, Timepoint 60 hours, 60 h, 1 µM): -12.6071% and -5.875%
10 | O=C(Nc1ccc(C(O)(C(F)(F)F)C(F)(F)F)cc1)c1ccc(C(F)(F)F)cc1 | 1.9218 | 1.011 | 4.384 | 2.099 | –
11 | CC(=O)Nc1nc(C)c(S(=O)(=O)Nc2ccc(C(O)(C(F)(F)F)C(F)(F)F)cc2)s1 | 4.3226 | 10.3847 | 21.8693 | -92.7489 | –
12 | CC(C)c1onc(-c2c(Cl)cccc2Cl)c1COc1ccc(/C=C/c2cccc(C(=O)O)c2)c(Cl)c1 | -17.7139 | -8.477 | 8.951 | -22.8602 | –
13 | O=S(=O)(Nc1ccc(C(O)(C(F)(F)F)C(F)(F)F)cc1)c1cccs1 | 37.5142 | -2.586 | 11.7189 | -15.4416 | –
14 | COc1cccc(Cn2cc(C(=O)Nc3ccc(C)c(S(=O)(=O)N4CCOCC4)c3)c(-c3ccc(C)cc3)n2)c1 | -3.785 | -6.106 | -1.342 | -4.917 | –
15 | Cc1cc(SCc2sc(-c3ccc(C(F)(F)F)c(F)c3)nc2C)ccc1OCC(=O)O | -0.9501 | -2.27 | 3.329 | -6.099 | –
16 | Cl.O=C(O)Cc1cccc(OCCCN(Cc2cccc(C(F)(F)F)c2Cl)CC(c2ccccc2)c2ccccc2)c1 | -4.945 | -7.042 | -10.7668 | -6.3424 | –

Row | Compound | autophagy induction [1] [%] | autophagy induction [2] [%] | autophagy induction [3] [%] | autophagy induction [4] [%] | further results
17 | CC(C)C(=O)N1CCC(c2cn(C)c3ncc(NC(=O)c4cccc(C#N)c4)c(C(F)(F)F)c23)CC1 | -17.3669 | -7.8656 | 13.4062 | -15.2604 | –
18 | CC(C)c1ccc(CC(=O)N2CCC[C@@H](c3cccc(OC(C)(C)C(=O)O)c3)C2)cc1 | 2.269 | -2.988 | 2.286 | -0.7623 | –
19 | COC(=O)C(Cc1ccc(OCCn2c(=O)sc3cc(C(=O)c4ccccc4)ccc32)cc1)C(=O)OC | -14.8184 | -7.449 | 12.2337 | -20.3416 | –
20 | Clc1ccc(-c2nc3sccn3c2/C=N/OCc2ccc(Cl)c(Cl)c2)cc1 | -153.599 | -9.053 | 9.503 | -19.9955 | –
21 | CCOP(=O)(OCC)C(=Cc1cc(C(C)(C)C)c(O)c(C(C)(C)C)c1)P(=O)(OCC)OCC | -14.535 | -0.01812 | 17.6383 | -21.9097 | –
22 | CCOC(=O)C1Cc2ccccc2CN1C(=O)c1ccc(SC)s1 (stereo not drawn) | 141.578 | -7.836 | 8.933 | -16.4137 | –
23 | CC1(C)C(=O)C(C)(C)c2cc(C(=O)Nc3ccc(C(=O)O)cc3)ccc21 | -15.7037 | -5.578 | 15.5375 | -28.4557 | –
24 | C[C@H](CCOc1cccc(CC(=O)O)c1)N(Cc1cccc(C(F)(F)F)c1Cl)CC(c1ccccc1)c1ccccc1.Cl | -13.5866 | 1.703 | 15.8521 | -16.0779 | –
25 | CCO[C@H](COc1ccc(C(F)(F)F)cc1)CSc1ccc(OCC(=O)[O-])c(C)c1.[Na+] | 0.706 | -0.6859 | 2.912 | 3.397 | –
26 | CN1CCN(c2ccc(/C=C(\C#N)c3ccccc3Br)cc2)CC1.Cl.Cl | -7.74 | -11.503 | -8.5159 | 1.827 | –
27 | COC(=O)c1sccc1S(=O)(=O)Nc1ccc(Nc2ccccc2)cc1OC | -12.2106 | -1.2 | 15.0919 | -15.7117 | –
28 | O=C(NCCS(=O)(=O)c1ccc(C(F)(F)F)cn1)c1ccc(Cl)cc1 | -3.2973 | -5.225 | 0.4695 | 10.0166 | –
29 | CC1(C)CCC(C)(C)c2cc(C(=O)Nc3ccc(C(=O)O)cc3)ccc21 | -16.8061 | -23.3221 | -14.7294 | 28.5347 | –
30 | CC(=O)Oc1ccc2c(c1)[C@@]1(C)CCC[C@](C)(C(=O)OC(=O)[C@@]3(C)CCC[C@]4(C)c5cc(OC(C)=O)ccc5CC[C@@H]34)[C@@H]1CC2 [ACETYL PODOCARPIC ACID ANHYDRIDE] | -1.145 | -5.055 | -3.143 | -11.9263 | –
31 | CCCCc1oc2ccccc2c1C(=O)c1cc(I)c(OCCN(CC)CC)c(I)c1.Cl [AMIODARONE HYDROCHLORIDE] | -399.679 | -0.6341 | 14.6432 | -20.4662 | –
32 | COc1cc2c(cc1CC=C(C)C)C(=O)C[C@@H](c1ccc(O)cc1)O2 [BAVACHININ A] | -6.984 | -10.3298 | -14.6991 | 1.68 | –
